Test results as given in patent publication US10168342B2, “Lipid probes and uses thereof” (THE SCRIPPS RESEARCH INSTITUTE, priority 2015, dated 2019).
Read-outs that look alike come from different tables or passages of the source.

Columns and labels:
[1] = biological target: T1, AEA-DA lipid probe targets in Neuro2a cells (Mus musculus, UniProt Q91YQ5)
T1 sequence (Q91YQ5 26-608): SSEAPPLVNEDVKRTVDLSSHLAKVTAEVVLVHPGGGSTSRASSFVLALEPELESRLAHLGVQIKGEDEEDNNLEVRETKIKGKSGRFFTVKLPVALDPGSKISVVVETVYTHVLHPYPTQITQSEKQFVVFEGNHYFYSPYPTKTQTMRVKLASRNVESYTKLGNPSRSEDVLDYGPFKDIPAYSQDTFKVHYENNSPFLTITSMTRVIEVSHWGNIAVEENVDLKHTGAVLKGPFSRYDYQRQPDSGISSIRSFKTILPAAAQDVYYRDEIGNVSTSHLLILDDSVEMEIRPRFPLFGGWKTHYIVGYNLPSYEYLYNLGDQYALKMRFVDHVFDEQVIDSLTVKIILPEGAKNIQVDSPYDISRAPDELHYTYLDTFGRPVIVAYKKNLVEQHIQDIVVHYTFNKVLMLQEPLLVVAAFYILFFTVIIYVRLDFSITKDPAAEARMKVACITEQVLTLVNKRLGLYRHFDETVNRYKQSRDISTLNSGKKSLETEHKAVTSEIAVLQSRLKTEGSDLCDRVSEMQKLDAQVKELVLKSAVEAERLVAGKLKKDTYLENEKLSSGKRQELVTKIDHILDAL

[2] = biological target: AEA-DA lipid probe targets in Neuro2a cells (Mus musculus, UniProt Q9EQK7)
Sequence of AEA-DA lipid probe targets in Neuro2a cells (Mus musculus, UniProt Q9EQK7) (Q9EQK7 whole entry): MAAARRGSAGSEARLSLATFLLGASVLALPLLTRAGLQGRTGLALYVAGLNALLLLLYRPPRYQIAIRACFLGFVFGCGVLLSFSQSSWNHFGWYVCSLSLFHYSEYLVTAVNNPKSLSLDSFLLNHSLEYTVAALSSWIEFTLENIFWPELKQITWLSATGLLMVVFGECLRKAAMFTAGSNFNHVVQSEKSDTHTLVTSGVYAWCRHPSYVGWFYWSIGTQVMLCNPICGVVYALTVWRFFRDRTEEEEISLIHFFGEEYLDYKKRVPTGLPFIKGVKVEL

[3] = biological target: T2, AEA-DA lipid probe targets in Neuro2a cells (Mus musculus, UniProt P18572)
T2 sequence (P18572 22-389): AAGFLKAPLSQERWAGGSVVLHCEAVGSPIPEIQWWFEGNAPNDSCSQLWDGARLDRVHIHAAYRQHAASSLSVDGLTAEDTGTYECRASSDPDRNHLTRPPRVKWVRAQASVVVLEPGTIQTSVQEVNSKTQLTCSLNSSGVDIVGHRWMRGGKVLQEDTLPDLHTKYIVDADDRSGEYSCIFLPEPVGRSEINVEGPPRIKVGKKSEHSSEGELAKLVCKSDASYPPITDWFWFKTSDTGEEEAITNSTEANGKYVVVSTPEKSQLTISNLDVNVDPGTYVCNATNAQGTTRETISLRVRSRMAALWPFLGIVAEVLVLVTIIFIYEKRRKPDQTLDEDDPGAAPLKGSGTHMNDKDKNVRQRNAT

[4] = biological target: T3, AEA-DA lipid probe targets in Neuro2a cells (Mus musculus, UniProt D3YZZ5)
T3 sequence (D3YZZ5 35-224): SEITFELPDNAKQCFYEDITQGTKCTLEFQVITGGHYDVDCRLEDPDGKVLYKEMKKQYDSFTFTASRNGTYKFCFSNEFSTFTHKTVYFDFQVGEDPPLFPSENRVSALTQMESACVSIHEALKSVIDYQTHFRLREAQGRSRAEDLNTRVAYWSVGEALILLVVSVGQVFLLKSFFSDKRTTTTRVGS

[5] = biological target: T4, AEA-DA lipid probe targets in Neuro2a cells (Mus musculus, UniProt Q9EQI8)
T4 sequence (Q9EQI8 1-283): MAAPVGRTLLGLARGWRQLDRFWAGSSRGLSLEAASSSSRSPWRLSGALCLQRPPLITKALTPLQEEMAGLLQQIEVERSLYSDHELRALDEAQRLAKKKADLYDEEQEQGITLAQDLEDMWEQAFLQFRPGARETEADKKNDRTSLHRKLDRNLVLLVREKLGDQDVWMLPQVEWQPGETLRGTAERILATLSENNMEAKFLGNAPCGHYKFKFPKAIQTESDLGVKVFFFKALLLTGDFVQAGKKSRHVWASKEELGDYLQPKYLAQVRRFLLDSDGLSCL

[6] = biological target: T5, AEA-DA lipid probe targets in Neuro2a cells (Mus musculus, UniProt P81117)
T5 sequence (P81117 25-420): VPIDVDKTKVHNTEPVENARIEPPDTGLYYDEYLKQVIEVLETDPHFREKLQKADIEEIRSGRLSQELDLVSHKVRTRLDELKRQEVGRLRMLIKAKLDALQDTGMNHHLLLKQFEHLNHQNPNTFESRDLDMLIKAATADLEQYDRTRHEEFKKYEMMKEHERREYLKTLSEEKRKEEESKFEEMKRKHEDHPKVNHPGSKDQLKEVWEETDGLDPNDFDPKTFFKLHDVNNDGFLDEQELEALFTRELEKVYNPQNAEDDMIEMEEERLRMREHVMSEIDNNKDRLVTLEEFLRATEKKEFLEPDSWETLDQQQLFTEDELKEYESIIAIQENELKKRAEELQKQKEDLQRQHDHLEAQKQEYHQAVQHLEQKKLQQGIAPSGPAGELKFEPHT

[7] = biological target: T6, AEA-DA lipid probe targets in Neuro2a cells (Mus musculus, UniProt P43883)
T6 sequence (P43883 1-425): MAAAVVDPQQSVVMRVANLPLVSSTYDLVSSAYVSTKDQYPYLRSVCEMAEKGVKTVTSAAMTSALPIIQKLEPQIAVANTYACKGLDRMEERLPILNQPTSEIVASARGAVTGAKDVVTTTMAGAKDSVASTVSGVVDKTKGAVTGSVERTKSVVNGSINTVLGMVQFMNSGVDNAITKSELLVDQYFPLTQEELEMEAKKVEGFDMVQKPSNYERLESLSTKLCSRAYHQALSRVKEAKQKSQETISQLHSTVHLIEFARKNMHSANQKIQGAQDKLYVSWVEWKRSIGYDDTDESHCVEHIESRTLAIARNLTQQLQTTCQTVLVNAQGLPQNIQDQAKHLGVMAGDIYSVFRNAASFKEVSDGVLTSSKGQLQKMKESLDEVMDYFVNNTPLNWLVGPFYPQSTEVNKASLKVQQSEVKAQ

[8] = biological target: T7, AEA-DA lipid probe targets in Neuro2a cells (Mus musculus, UniProt Q8BXV2)
T7 sequence (Q8BXV2 1-253): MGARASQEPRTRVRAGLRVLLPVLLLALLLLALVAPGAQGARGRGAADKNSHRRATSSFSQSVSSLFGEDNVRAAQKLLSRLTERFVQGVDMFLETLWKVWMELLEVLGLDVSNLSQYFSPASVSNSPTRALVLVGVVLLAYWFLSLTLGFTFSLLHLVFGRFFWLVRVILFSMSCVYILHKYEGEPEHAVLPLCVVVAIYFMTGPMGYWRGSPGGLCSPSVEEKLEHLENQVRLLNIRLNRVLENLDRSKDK

## CCCCC/C=C\C/C=C\C/C=C\C/C=C\CCCC(=O)NCCO [AEA, anandamide, reference compound]
[1]; competitor 200 μM
  SILAC ratio Rpn1: 1.6
[2]; competitor 200 μM
  SILAC ratio Icmt: 1.5
[3]; competitor 200 μM
  SILAC ratio Bsg: 1.3
[4]; competitor 200 μM
  SILAC ratio, Tmed7: 1.5
[5]; competitor 200 μM
  SILAC ratio Mrpl46: 1.3
[6]; competitor 200 μM
  SILAC ratio, Nucb2: 1.5
[7]; competitor 200 μM
  SILAC ratio, Plin2: 1.4
[8]; competitor 200 μM
  SILAC ratio, Bri3bp: 2.0

## O=C(/C=C/c1cccnc1)NCCCCC1CCN(C(=O)c2ccccc2)CC1 [FK-866, reference compound]
[1]; competitor 25 μM
  SILAC ratio Rpn1: 1.2
[2]; competitor 25 μM
  SILAC ratio Icmt: 1.3
[3]; competitor 25 μM
  SILAC ratio Bsg: 1.0
[4]; competitor 25 μM
  SILAC ratio, Tmed7: 1.1
[5]; competitor 25 μM
  SILAC ratio Mrpl46: 1.3
[6]; competitor 25 μM
  SILAC ratio, Nucb2: 1.1
[7]; competitor 25 μM
  SILAC ratio, Plin2: 1.0
[8]; competitor 25 μM
  SILAC ratio, Bri3bp: 1.1

## CN1CCN(C(=O)c2c(-c3ccccc3)c3cc([N+](=O)[O-])ccc3n2C)CC1 [KML110, (1-Methyl-5-nitro-3-phenyl-1H-indol-2-yl)(4-methylpiperazin-1-yl)methanone]
[1]; competitor 25 μM
  SILAC ratio Rpn1: 1.2
[2]; competitor 25 μM
  SILAC ratio Icmt: 1.0
[3]; competitor 25 μM
  SILAC ratio Bsg: 1.3
[4]; competitor 25 μM
  SILAC ratio, Tmed7: 1.6
[5]; competitor 25 μM
  SILAC ratio Mrpl46: 1.3
[6]; competitor 25 μM
  SILAC ratio, Nucb2: 2.0
[7]; competitor 25 μM
  SILAC ratio, Plin2: 2.7
[8]; competitor 25 μM
  SILAC ratio, Bri3bp: 1.6

## CN1CCN(C(=O)c2[nH]c3ccc([N+](=O)[O-])cc3c2-c2ccccc2)CC1 [MJN228, (4-Methylpiperazin-1-yl)(5-nitro-3-phenyl-1H-indol-2-yl)methanone]
[1]; competitor 10 μM
  SILAC ratio Rpn1: 1.3
[1]; competitor 25 μM
  SILAC ratio Rpn1: 1.4
[1]; competitor 50 μM
  SILAC ratio Rpn1: 1.2
[1]; competitor 100 μM
  SILAC ratio Rpn1: 1.6
[2]; competitor 10 μM
  SILAC ratio Icmt: 0.9
[2]; competitor 25 μM
  SILAC ratio Icmt: 0.9
[2]; competitor 50 μM
  SILAC ratio Icmt: 0.6
[2]; competitor 100 μM
  SILAC ratio Icmt: 0.5
[3]; competitor 10 μM
  SILAC ratio Bsg: 1.4
[3]; competitor 25 μM
  SILAC ratio Bsg: 1.6
[3]; competitor 50 μM
  SILAC ratio Bsg: 1.2
[3]; competitor 100 μM
  SILAC ratio Bsg: 1.6
[4]; competitor 10 μM
  SILAC ratio, Tmed7: 1.0
[4]; competitor 25 μM
  SILAC ratio, Tmed7: 1.5
[4]; competitor 100 μM
  SILAC ratio, Tmed7: 2.1
[5]; competitor 10 μM
  SILAC ratio Mrpl46: 1.0
[5]; competitor 25 μM
  SILAC ratio Mrpl46: 1.3
[5]; competitor 50 μM
  SILAC ratio Mrpl46: 1.0
[5]; competitor 100 μM
  SILAC ratio Mrpl46: 1.3
[6]; competitor 10 μM
  SILAC ratio, Nucb2: 1.4
[6]; competitor 25 μM
  SILAC ratio, Nucb2: 1.6
[6]; competitor 50 μM
  SILAC ratio, Nucb2: 2.1
[6]; competitor 100 μM
  SILAC ratio, Nucb2: 2.9
[7]; competitor 10 μM
  SILAC ratio, Plin2: 1.8
[7]; competitor 25 μM
  SILAC ratio, Plin2: 3.2
[7]; competitor 50 μM
  SILAC ratio, Plin2: 20.0
[7]; competitor 100 μM
  SILAC ratio, Plin2: 20.0
[8]; competitor 10 μM
  SILAC ratio, Bri3bp: 1.3
[8]; competitor 25 μM
  SILAC ratio, Bri3bp: 1.5
[8]; competitor 50 μM
  SILAC ratio, Bri3bp: 1.4
[8]; competitor 100 μM
  SILAC ratio, Bri3bp: 2.1

## C=CCN(C)CCCCCCOc1ccc(C(=O)c2ccc(Br)cc2)c(F)c1 [Ro 48-8071, reference compound]
[1]; competitor 25 μM
  SILAC ratio Rpn1: 0.9
[2]; competitor 25 μM
  SILAC ratio Icmt: 1.6
[3]; competitor 25 μM
  SILAC ratio Bsg: 1.1
[4]; competitor 25 μM
  SILAC ratio, Tmed7: 1.1
[5]; competitor 25 μM
  SILAC ratio Mrpl46: 0.9
[6]; competitor 25 μM
  SILAC ratio, Nucb2: 0.8
[7]; competitor 25 μM
  SILAC ratio, Plin2: 1.8
[8]; competitor 25 μM
  SILAC ratio, Bri3bp: 1.1
